Tested on: panel of cancer cell lines
Test: Cell viability (CellTiter-Glo) dose-response across cancer cell line panel;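 as to EC50: after 72 h compound incubation with CellTiter-Glo ATP readout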
Format: cell-based, human
Conditions: for EC50: Homo sapiens
Outline: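 Dose–response viability screen of a CSN5 inhibitor in over 500 cancer lines. Compound exposure lasted 72 h at 37 °C and 5% CO2, starting 4 h post-seeding. ATP luminescence (CellTiter-Glo) was read, and EC50 was obtained by nonlinear regression of percent inhibition.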

NS(=O)(=O)OC[C@@H]1C[C@@H](n2ccc3c(N[C@H]4CCc5ccccc54)ncnc32)C[C@@H]1O [MLN4924]
EC50 (SNU-685): 720 nM
EC50 (SNU-738): 410 nM
EC50 (SNU-761): 874 nM
EC50 (SNU-886, SNU-886): 42.5 nM
EC50 (SNU-1040): 159 nM
EC50 (SNU-1079): 386 nM
EC50 (SNU-C1, SNU-C1): 1630 nM
EC50 (SNU-C2A): 6400 nM
EC50 (SNU-C4, SNU-C4): 1110 nM
EC50 (SNU-C5): 589 nM
EC50 (SR-786, SR-786): 861 nM
EC50 (SU-DHL10, SU-DHL-10): 204 nM
EC50 (SU-DHL-4, SU-DHL-4): 76.1 nM
EC50 (SU-DHL-5, SU-DHL-5): 101 nM
EC50 (SU-DHL-6, SU-DHL-6): 248 nM
EC50 (SU-DHL-8, SU-DHL-8): 155 nM
EC50 (SU.86.86, SU.86.86): 777 nM
EC50 (SUIT-2, SUIT-2): 184 nM
EC50 (SUM52PE): 109 nM
EC50 (SUM149PT): 611 nM
EC50 (SUM185PE): 63.7 nM
EC50 (SUM190PT): 98.9 nM
EC50 (SUM-159-PT, SUM159PT): 6930 nM
EC50 (SUP-T1, SUP-T1): 154 nM
EC50 (SW48, SW48): 145 nM
EC50 (SW480, SW480): 399 nM
EC50 (SW900, SW 900): 1520 nM
EC50 (SW982, SW982): 805 nM
EC50 (SW1088, SW 1088): > 30000 nM
EC50 (SW1271, SW 1271): 523 nM
EC50 (SW1353, SW 1353): 2900 nM
EC50 (SW1573, SW 1573): 224 nM
EC50 (SW1783, SW 1783): > 30000 nM
EC50 (SW-403, SW403): 803 nM
EC50 (SW-620, SW620): 1500 nM
EC50 (SYO-1): 281 nM
EC50 (Sq-1): 164 nM
EC50 (T3M4, T3M-4): 459 nM
EC50 (T47D, T-47D): 315 nM
EC50 (TALL-1, TALL-1): 446 nM
EC50 (TANOUE): 57.9 nM
EC50 (TC-71, TC-71): 159 nM
EC50 (TCC-PAN2): 1300 nM
EC50 (TE-1, TE-1): 1700 nM
EC50 (TE-6, TE-6): 422 nM
EC50 (TE-11, TE-11): 247 nM
EC50 (TE-14): 339 nM
EC50 (TF-1, TF-1): 1710 nM
EC50 (THP-1, THP-1): 175 nM
EC50 (TT2609-C02): 334 nM
EC50 (TYK-nu): 156 nM
EC50 (U266B1): 827 nM
EC50 (U-87 MG): 447 nM
EC50 (U-118-MG, U-118 MG): 541 nM
EC50 (U-251, U-251 MG): 1690 nM
EC50 (U-937, U-937): 103 nM
EC50 (UACC-62, UACC-62): 192 nM
EC50 (UACC-257, UACC-257): 650 nM
EC50 (UCH1, UCH-1): 5210 nM
EC50 (UKE1, UKE1): 383 nM
EC50 (VM-CUB-1, VM-CUB1): 829 nM
EC50 (VMRC-LCD): 288 nM
EC50 (VMRC-RCW): 1230 nM
EC50 (WM 266-4, WM-266-4): 465 nM
EC50 (WM983B, WM-983B): 201 nM
EC50 (WM-88): 510 nM
EC50 (WM-115, WM-115): 1410 nM
EC50 (WM-1799, WM1799): 154 nM
EC50 (WSU-WM): 185 nM
EC50 (YAPC): 205 nM
EC50 (ZR-75-1, ZR-75-1): 353 nM
AMAX (Hs 695T): -54.4409
AMAX (Hs 936.T): -81.1628
AMAX (HuG1-N): -47.6265
AMAX (HuH-7): -61.9045
AMAX (IGR-37): -85.5177
AMAX (IGROV1): -85.9932
AMAX (IPC-298): -80.8233
AMAX (Ishikawa): -91.0654
AMAX (J82): -49.0789
AMAX (JHH-4): -91.4007
AMAX (JHOS-2): -63.2509
AMAX (JHUEM-2): -75.0485
AMAX (JHUEM-3): -28.2496
AMAX (JL-1): -61.5427
AMAX (JVM-2): -91.7997
AMAX (KARPAS-422): -93.0088
AMAX (KATO III): -44.0826
AMAX (KBM-7): -98.5101
AMAX (KE-97): -95.9856
AMAX (KMRC-1): -84.1268
AMAX (KP4): -71.8264
AMAX (KP-1N): -53.1172
AMAX (KP-2): -64.2974
AMAX (KP-3): -63.0208
AMAX (KU-19-19): -84.2248
AMAX (KYSE-150): -87.7498
AMAX (KYSE-180): -85.8737
AMAX (Kasumi3): -97.5892
AMAX (L-363): -96.7272
AMAX (LC2/ad): -74.576
AMAX (MM138): -73.7519
AMAX (MM415): -81.4932
AMAX (MM426): -75.6165
AMAX (MM485): -69.3744
AMAX (MM537): -69.6122
AMAX (MOLT-16): -97.3083
AMAX (MeWo): -75.2037
AMAX (NB-1): -99.4488
AMAX (NCI-H82): -97.4475
AMAX (NCI-H146): -90.9498
AMAX (NCI-H322): -80.9979
AMAX (NCI-H441): -47.4873
AMAX (NCI-H647): -73.4893
AMAX (NCI-H841): -87.0207
AMAX (NCI-H1373): -83.9593
AMAX (NCI-H1568): -95.718
AMAX (NCI-H1755): -73.6315
AMAX (NCI-H2023): -96.0734
AMAX (NCI-H2087): -83.0999
AMAX (NCI-H2110): -89.6657
AMAX (NCI-H2452): -41.6484
AMAX (NCI-N87): -74.5636
AMAX (NO36): -67.5733
AMAX (OUMS-23): -78.9353
AMAX (OV56): -95.0768
AMAX (P3HR-1): -93.355
AMAX (P12-ICHIKAWA): -96.3019
AMAX (PA-TU-8988T): -81.7224
AMAX (PANC-1): -64.2148
AMAX (PC-3): -79.4027
AMAX (PE/CA-PJ34 (clone C12)): -79.361
AMAX (PE/CA-PJ49): -67.4836
AMAX (PF-382): -98.4673
AMAX (PL-21): -95.522
AMAX (Panc 03.27): -88.9221
AMAX (Panc 04.03): -72.0017
AMAX (Panc 10.05): -85.7173
AMAX (RD-ES): -97.5942
AMAX (RT-112): -90.3953
AMAX (SEM): -97.7133
AMAX (SK-ES-1): -95.0336
AMAX (SK-MEL-3): -81.0459
AMAX (SW480): -74.5488
AMAX (VMRC-RCW): -71.6057

Reference: publication PMC5078989, “Targeted inhibition of the COP9 signalosome for treatment of cancer” (Nature Communications, 2016)
